Key:
[1] = biological target: T1, phosphorylated BTK Y223 in NIH/3T3 BTK WT cells (Homo sapiens, UniProt Q06187); assay: Phosphor-BTK(Y223) assay, NIH/3T3 BTK WT cells; type: cell-based; conditions: phosphorylated BTK Y223, NIH/3T3 BTK WT cells; read-out: NIH/3T3 BTK-WT pBTK IC50
T1 construct: expressed in transfected cells; host or cells: NIH/3T3 (mouse fibroblasts) engineered to express BTK WT
Experimental: (§1) The purpose of this assay is to simply, quickly and directly detect the endogenous level of BTK in cells. The specific assay steps are as follows: Day 1: NIH/3T3 BTK WT cells (7.5 k/well) and NIH/3T3 BTK C481S cells (10 k/well) were plated in 96-well plates, respectively, and cultured overnight at 37° C. and 5% CO2.
(§2) • 1. A 3-fold final concentration gradient dilution of the compound was prepared, and 50 μL was added to 100 μL of cell culture; 0.5% DMSO was used as a positive control for cell growth. • 2. The plate was incubated at 37° C., 5% CO2 for 0.5 h. • 3. Na3VO4 with a final concentration of 1 mM was added, and incubated at 37° C. and 5% CO2 for 2 hours. • 4. During the incubation, the following reagents were prepared: 1× added lysis buffer: 3 vol ddH2O+1 vol 4× lysis buffer+100× blocking reagent. p-BTK (Y223) cryptate-antibody and p-BTK (Y223) d2-antibody working solutions: 1 volume of each cryopreserved antibody (stored at −20° C.) was added to 19 times volumes of assay buffer (stored at 4° C.). • 5. After the incubation, the medium was removed and 50 μL of 1× added lysis buffer was added; The mixture was centrifuged at 500 rpm for 30 min at room temperature. • 6. The lysate was mixed well and 16 μL was transferred to a 384-well plate; 1× added lysis buffer was used as a blank control. • 7. 4 μL of pre-mixed working solutions of the two antibodies (cryptate Ab:d2 Ab=1:1) were added and the plate was sealed. • 8. The plate was incubated overnight at room temperature.
(§3) Biotek cytation3.0 microplate reader was used to read the plate at 665 nm and 620 nm, and the ratio of 665/620 nm per well was calculated.
(§4) IC50 was calculated using GraphPad Prism 7.0 software.
(§5) The following nonlinear fitting formula was used to obtain the phosphorylated BTK Y223 IC50 (half phosphorylation inhibitory concentration) of the compounds:
(§6) [formula] • X: Compound concentration log value • Y: Inhibition rate (% inhibition)
(§7) The formula for calculating cell phosphorylation inhibition rate (% inhibition rate) was: […]

[2] = biological target: T2, phosphorylated BTK Y223 in NIH/3T3 BTK C481S cells (Homo sapiens, UniProt Q06187, C481S); assay: Phosphor-BTK(Y223) assay, NIH/3T3 BTK C481S cells; type: cell-based; conditions: phosphorylated BTK Y223, NIH/3T3 BTK C481S cells; read-out: NIH/3T3 BTK-C481S pBTK IC50
T2 construct: expressed in transfected cells; host or cells: NIH/3T3 (mouse fibroblasts) engineered to express BTK C481S
T2 sequence (Q06187 whole entry C481S): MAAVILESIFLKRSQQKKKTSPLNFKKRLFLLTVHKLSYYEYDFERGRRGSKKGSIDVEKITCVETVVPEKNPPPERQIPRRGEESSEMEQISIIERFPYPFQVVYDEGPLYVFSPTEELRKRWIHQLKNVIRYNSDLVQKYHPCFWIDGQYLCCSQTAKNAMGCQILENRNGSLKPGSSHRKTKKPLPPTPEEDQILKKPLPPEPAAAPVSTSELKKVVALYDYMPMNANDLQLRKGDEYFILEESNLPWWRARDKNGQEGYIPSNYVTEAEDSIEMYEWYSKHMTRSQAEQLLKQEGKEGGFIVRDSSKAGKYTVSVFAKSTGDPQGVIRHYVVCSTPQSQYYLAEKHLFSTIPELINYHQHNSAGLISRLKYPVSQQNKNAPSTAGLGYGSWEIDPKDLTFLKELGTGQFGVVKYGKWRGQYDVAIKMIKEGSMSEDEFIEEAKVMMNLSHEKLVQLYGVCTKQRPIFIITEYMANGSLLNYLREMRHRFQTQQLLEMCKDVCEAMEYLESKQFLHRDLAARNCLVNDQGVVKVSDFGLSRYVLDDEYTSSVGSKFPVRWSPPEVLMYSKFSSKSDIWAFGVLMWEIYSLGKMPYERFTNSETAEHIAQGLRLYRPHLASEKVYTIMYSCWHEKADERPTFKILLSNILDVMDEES
Experimental: as §1, §2, §3, §4, §5, §6, §7

T1 sequence (Q06187 whole entry): as the sequence (Q06187 whole entry C481S) above, with S481C counted along it

| IC50 [1] [µM] | IC50 [2] [µM] | Compound |
| --- | --- | --- |
| ≤ 0.025 | 0.025 to 0.05 | COc1ccc(F)cc1C(=O)NCc1ccc(-c2nn([C@@H]3C=C[C@@H](O)C3)c3ncnc(N)c23)cc1 (single isomer, unassigned) [Example 38, trans-N-(4-(4-amino-1-(4-hydroxycyclopent-2-en-1-yl)-1H-pyrazolo[3,4-d]pyrimidin-3-yl)benzyl)-5-fluoro-2-methoxybenzamide] |
| 0.1 to 0.5 | 0.1 to 0.5 | COc1ccc(F)cc1C(=O)NCc1ccc(-c2nn(C3CCCC(O)C3)c(N)c2C(N)=O)cc1 (single isomer, unassigned) [Example 3, 5-amino-3-(4-((5-fluoro-2-methoxybenzamido)methyl)phenyl)-1-(3-hydroxycyclohexyl)-1H-pyrazole-4-carboxamide] |
| ≤ 0.025 | 0.025 to 0.05 | COc1ccc(F)cc1C(=O)NCc1ccc(-c2nn([C@@H]3C=C[C@@H](O)C3)c3ncnc(N)c23)cc1 (single isomer, unassigned) [Example 49, trans-N-(4-(4-amino-1-(4-hydroxycyclopent-2-en-1-yl)-1H-pyrazolo[3,4-d]pyrimidin-3-yl)benzyl)-5-fluoro-2-methoxybenzamide] |
| ≤ 0.025 | 0.025 to 0.05 | COc1ccc(F)cc1C(=O)NCc1ccc(-c2nn(C3CCCC(C)(O)C3)c3ncnc(N)c23)cc1 (single isomer, unassigned) [Example 28, N-(4-(4-amino-1-(3-hydroxy-3-methylcyclohexanyl)-1H-pyrazolo[3,4-d]pyrimidin-3-yl)benzyl)-5-fluoro-2-methoxybenzamide] |
| 0.025 to 0.05 | 0.05 to 0.1 | COc1ccc(F)cc1C(=O)NCc1ccc(-c2nn([C@@H]3C=C[C@@H](O)C3)c3ncnc(N)c23)cc1 (single isomer, unassigned) [Example 37, trans-N-(4-(4-amino-1-(4-hydroxycyclopent-2-en-1-yl)-1H-pyrazolo[3,4-d]pyrimidin-3-yl)benzyl)-5-fluoro-2-methoxybenzamide] |
| 0.025 to 0.05 | 0.05 to 0.1 | COc1ccc(F)cc1C(=O)NCc1ccc(-c2nn(C3CCCCC(O)C3)c3ncnc(N)c23)cc1 (stereo not drawn) [Example 57, N-(4-(4-amino-1-(3-hydroxycycloheptyl)-1H-pyrazolo[3,4-d]pyrimidin-3-yl)benzyl)-5-fluoro-2-methoxybenzamide] |
| 0.05 to 0.1 | 0.05 to 0.1 | COc1ccc(F)cc1C(=O)NCc1ccc(-c2nn(C3CCCC(O)C3)c(N)c2C(N)=O)cc1 (single isomer, unassigned) [Example 2, 5-amino-3-(4-((5-fluoro-2-methoxybenzoylamino)methyl)phenyl)-1-(3-hydroxycyclohexyl)-1H-pyrazole-4-carboxamide] |
| 0.05 to 0.1 | 0.1 to 0.5 | COc1ccc(F)cc1C(=O)NCc1ccc(-c2nn(C3CCC(CO)OC3)c(N)c2C(N)=O)cc1 (single isomer, unassigned) [Example 14, 5-amino-3-(4-((5-fluoro-2-methoxybenzamido)methyl)phenyl)-1-(6-(hydroxymethyl)tetrahydro-2H-pyran-3-yl)-1H-pyrazole-4-carboxamide] |
| 0.05 to 0.1 | 0.1 to 0.5 | COc1ccc(F)cc1C(=O)NCc1ccc(-c2nn([C@H]3CC[C@@H](O)CC3)c3c(=O)[nH]nc(N)c23)cc1 [Example 39, cis-N-(4-(4-amino-1-((1S,4S)-4-hydroxycyclohexanyl)-7-oxo-6,7-dihydro-1H-pyrazolo[3,4-d]pyridazin-3-yl)benzyl)-5-fluoro-2-methoxybenzamide] |
| 0.025 to 0.05 | 0.05 to 0.1 | COc1ccc(F)cc1C(=O)NCc1ccc(-c2nn(C3CCC(CO)OC3)c3ncnc(N)c23)cc1 (single isomer, unassigned) [Example 19, N-(4-(4-amino-1-(6-(hydroxymethyl)tetrahydro-2H-pyran-3-yl)-1H-pyrazolo[3,4-d]pyrimidin-3-yl)benzyl)-5-fluoro-2-methoxybenzamide] |
| 0.1 to 0.5 | 0.1 to 0.5 | COc1ccc(F)cc1C(=O)NCc1ccc(-c2nn(C3CCCC(O)C3)c(N)c2C(N)=O)cc1 (stereo not drawn) [Example 1, 5-amino-3-(4-((5-fluoro-2-methoxybenzoylamino)methyl)phenyl)-1-(3-hydroxycyclohexyl)-1H-pyrazole-4-carboxamide] |
| ≤ 0.025 | ≤ 0.025 | COc1ccc(F)cc1C(=O)NCc1ccc(-c2nn(C3CCC(O)C3)c3ncnc(N)c23)cc1 (stereo not drawn) [Example 32, N-(4-(4-amino-1-(3-hydroxycyclopentanyl)-1H-pyrazolo[3,4-d]pyrimidin-3-yl)benzyl)-5-fluoro-2-methoxybenzamide] |
| 0.05 to 0.1 | 0.1 to 0.5 | COc1ccc(F)cc1C(=O)NCc1ccc(-c2nn(C3CCC(CO)OC3)c3ncnc(N)c23)cc1 (single isomer, unassigned) [Example 16, N-(4-(4-amino-1-(6-(hydroxymethyl)tetrahydro-2H-pyran-3-yl)-1H-pyrazolo[3,4-d]pyrimidin-3-yl)benzyl)-5-fluoro-2-methoxybenzamide] |
| 0.1 to 0.5 | 0.1 to 0.5 | COc1ccc(F)cc1C(=O)NCc1ccc(-c2nn(C3CCC(CO)OC3)c(N)c2C(N)=O)cc1 (stereo not drawn) [Example 12, 5-amino-3-(4-((5-fluoro-2-methoxybenzamido)methyl)phenyl)-1-(6-(hydroxymethyl)tetrahydro-2H-pyran-3-yl)-1H-pyrazole-4-carboxamide] |
| 0.1 to 0.5 | 0.1 to 0.5 | COc1ccc(F)cc1C(=O)NCc1ccc(-c2nn(C3CCC(CO)OC3)c3c(=O)[nH]nc(N)c23)cc1 (stereo not drawn) [Example 43, N-(4-(4-amino-1-(6-(hydroxymethyl)tetrahydro-2H-pyran-3-yl)-7-oxo-6,7-dihydro-1H-pyrazolo[3,4-d]pyridazin-3-yl)benzyl)-5-fluoro-2-methoxybenzamide] |
| 0.025 to 0.05 | 0.025 to 0.05 | COc1ccc(F)cc1C(=O)NCc1ccc(-c2nn(C3CCCC(C)(O)C3)c3ncnc(N)c23)cc1 (single isomer, unassigned) [Example 25, N-(4-(4-amino-1-(3-hydroxy-3-methylcyclohexanyl)-1H-pyrazolo[3,4-d]pyrimidin-3-yl)benzyl)-5-fluoro-2-methoxybenzamide] |
| 0.025 to 0.05 | 0.05 to 0.1 | COc1ccc(F)cc1C(=O)NCc1ccc(-c2nn(C3CCC(O)C3)c3c(=O)[nH]nc(N)c23)cc1 (stereo not drawn) [Example 41, N-(4-(4-amino-1-(3-hydroxycyclopentanyl)-7-oxo-6,7-dihydro-1H-pyrazolo[3,4-d]pyridazin-3-yl)benzyl)-5-fluoro-2-methoxybenzamide] |
| 0.05 to 0.1 | 0.1 to 0.5 | COc1ccc(F)cc1C(=O)NCc1ccc(-c2nn(C3CCCC(O)C3)c3c(=O)[nH]nc(N)c23)cc1 (stereo not drawn) [Example 44, N-(4-(4-amino-1-(3-hydroxycyclohexanyl)-7-oxo-6,7-dihydro-1H-pyrazolo[3,4-d]pyridazin-3-yl)benzyl)-5-fluoro-2-methoxybenzamide] |
